From patent US20230107216A1, “PANTETHEINE DERIVATIVES AND USES THEREOF” (Comet Therapeutics, Inc., priority 2018, published 2023)
Read-outs that look alike come from different tables or passages of the source.

Legend:
[1] = tested on: Leigh Syndrome (LS) primary fibroblasts GM03672; assay: NADP+/NADPH (NADP/NADPH-Glo), Leigh fibroblasts GM03672; assay type: cell-based; conditions: Homo sapiens, Fibroblast, 24h, read-out: Increase in Total NADP+ + NADPH
Method: (§1) Primary adherent fibroblasts were cultured in minimum essential medium (MEM) (Gibco, 25030081) supplemented with 2 mM L-Glutamine (Gibco, 25030081), 15% fetal bovine serum (FBS) (Gibco, 26400044) and 1% penicillin/streptomycin (Gibco, 5140122) at 37° C. and 5% CO2. Cells were collected for either passaging or experiment at ˜70-80% confluence. Cells were obtained by trypsinization and seeded in cell culture microplates either white plate (Thermo Fisher Scientific, 152028) for luminescent measurement or black plate (Thermo Fisher Scientific, 165305) for fluorescent based read out for different assays listed below. Cells were obtained by trypsinization and […] were seeded and allowed to adhere for 16-18 hours to have confluency around 70-80% in the cell well with culture media. After 24 hours prior to measurements (37° C., 5% CO2) media was changed to Dulbecco's Modified Eagle Medium (DMEM, Agilent Seahorse cat #103575-100) with the appropriate supplements as stated below.
(§2) Primary fibroblasts assayed were Propionic Acidemia (PA) (GM03590 Coriell Institute for Medical Research, Tsi 6337 Trans-Hit Bio), Methylmalonic Acidemia (MMA) (Tsi 5224 Trans-Hit Bio), Subnormal activation of pyruvate dehydrogenase complex (PDH) (GM01503 Coriell Institute for Medical Research), Very long-chain acyl-CoA dehydrogenase (VLCAD) (GM17475), Leigh Syndrome (LS) (GM03672, GM13411 Coriell Institute for Medical Research), Pyruvate Carboxylase Deficiency (PC) (GM00444 Coriell Institute for Medical Research). 10 μM of Compounds were added for 2 hours in PA, MMA lines and for 24h for the other fibroblast lines.
(§3) Assay was performed according to manufacturer instructions (NADP+/NADPH-Glo Assay Promega, G9082). Assay required a plate for total measurement of NADP+/NADPH and a plate for individual measurement of NADP+ or NADPH. For every assay a 12-point standard curve is prepared ranging from 400 nM to 0.625 nM. Media is removed and replaced with 50 μl of PBS for both assays.
(§4) For individual NADP+/NADPH measurements, 50 μl of 1% DTAB (Sigma, D5047) (cell lysis reagent) in 0.2N NaOH was added to the plates and 100 μl of lysate was split into two plates with 50 μl each from which ratio of NADP/NADPH can be calculated. 25 μl of 0.4N HCl were added to the NADP+ plates and both NADP+ and NADPH plates were heated at 60° C. for 15 minutes. The acid and heat treatment destroyed NADPH allowing individual NADP+ measurements while heating in basic conditions destroys NADP+ allowing individual NADPH measurement. After 15 minutes plates were allowed to come to room temperature and Trizma base (Sigma, T1699) was added to the NADP+ plates to neutralize the acid and HCl Trizma hydrochloride (Sigma, T2694) was added to the NADPH plates. The NADNADPH glo reagent was prepared by adding 125 μl of NAD cycling substrate, 125 μl of reductase, 125 μl of reductase substrate, 125 μl NAD cycling enzyme to a total of the 25 ml of NAD GLO reagent. 1:1 ratio of total volume of reagent was added to the individual NADP+, NADPH measurements (total 100 μl) and 50 μl were added for the total NAD/NADPH measurements. Luminescence was measured for 30-60 minutes within the linear range.
(§5) A total dead cell count was performed as described in Example 817 and only alive cells were used for analysis.

[2] = tested on: Subnormal activation of pyruvate dehydrogenase complex (PDH) primary fibroblasts GM01503; assay: NADP+/NADPH (NADP/NADPH-Glo), PDH fibroblasts GM01503; assay type: cell-based; conditions: Homo sapiens, Fibroblast, PDH GM01503 P10, assay condition A (10 mM glucose, 2 mM L-glutamine, 1 mM pyruvate, 10% FBS), 24h, read-out: Increase in Total NADP+ + NADPH
Method: as §1, §2, §3, §4, §5

[3] = tested on: Bronchial epithelial cells (BE3C system); assay: BioMAP BE3C system (IL-1β, TNFα, IFNγ); assay type: cell-based, human; conditions: procedure of Example 831
[4] = Leigh GM03672 P8, assay condition B (1 mM glucose, 2 mM L-glutamine, 1 mM pyruvate, 10% FBS)
[5] = Homo sapiens, Epithelial cell, 24 h, 10 uM, read-out: % decrease in MMP-1
[6] = Leigh GM03672 P9, assay condition A (10 mM glucose, 2 mM L-glutamine, 1 mM pyruvate, 10% FBS)

In the case of `CC(C)(CO)[C@@H](O)C(=O)NCCC(=O)NCCSC(=O)CC(=O)CCC(=O)O` [Compound 2, 6-[(2-[3-[(2R)-2,4-dihydroxy-3,3-dimethylbutanamido]propanamido]ethyl)sulfanyl]-4,6-dioxohexanoic acid], the activation at 10 µM [1, 4] is reported as ≥ 10%.
In the case of `C[C@@H](O)CC(=O)SCCNC(=O)CCNC(=O)[C@H](O)C(C)(C)CO` [Compound 38, S-2-{3-[(R)-2,4-dihydroxy-3,3-dimethylbutyrylamino]propionylamino} ethyl (R)-3-hydroxybutanethioate], the activation at 10 µM [2] is reported as ≥ 10%.
In the case of `C[C@@H](O)CC(=O)CC(=O)SCCNC(=O)CCNC(=O)[C@H](O)C(C)(C)CO` [Compound 42, (2R)-2,4-dihydroxy-N-[2-[(2-[[(5R)-5-hydroxy-3-oxohexanoyl]sulfanyl]ethyl)carbamoyl]ethyl]-3,3-dimethylbutanamide], the activation at 10 µM [2] is reported as ≥ 10%, the “% decrease in Keratin 8/18” value ([3]; 10 uM) is reported as ≥1.0% and the “% decrease in MMP-9” value ([3]; 10 uM) is reported as ≥10%. The “% decrease in tPA” value ([3]; 10 uM) was ≥10%.
For `COC(=O)CCC(=O)SCCNC(=O)CCNC(=O)[C@H](O)C(C)(C)COC(C)=O` [Compound 138], the “% increase in MMP-9” value ([3]; 1 uM) was ≥10%.
With `CC(=O)OCC(C)(C)[C@@H](O)C(=O)NCCC(=O)NCCSC(=O)CC(=O)CCC(=O)O` [Compound 140, 6-[(2-[3-[(2R)-4-(acetyloxy)-2-hydroxy-3,3-dimethylbutanamido]propanamido]ethyl)sulfanyl]-4,6-dioxohexanoic acid] the activation at 10 µM [2] was ≥ 10% and the activation at 10 µM [1, 4] was ≥ 10%.
`COC(=O)CC(SCCNC(=O)CCNC(=O)[C@H](O)C(C)(C)COC(C)=O)C(=O)OC` (stereo partly drawn) [Compound 149, 1,4-dimethyl 2-[(2-[3-[(2R)-4-(acetyloxy)-2-hydroxy-3,3-dimethylbutanamido]propanamido]ethyl)sulfanyl]butanedioate] was tested, and the “% decrease in tPA” value ([3]; 10 uM) was ≥10%.
`CCCCCCC(=O)SCCNC(=O)CCNC(=O)[C@H](O)C(C)(C)CO` [Compound 372, (2R)—N-(2-[[2-(heptanoylsulfanyl)ethyl]carbamoyl]ethyl)-2,4-dihydroxy-3,3-dimethylbutanamide] was tested, and the inhibition at 10 µM [3, 5] was ≥ 10%.
With `CCC(=O)CC(=O)SCCNC(=O)CCNC(=O)[C@H](O)C(C)(C)CO` [Compound 382, (2R)-2,4-dihydroxy-3,3-dimethyl-N-[2-([2-[(3-oxopentanoyl)sulfanyl]ethyl]carbamoyl)ethyl]butanamide] the activation at 10 µM [2] was ≥ 10%.
With `COC(=O)CC(C(C)=O)C(=O)SCCNC(=O)CCNC(=O)[C@H](O)C(C)(C)CO` (some centres unmarked) [Compound 410] the activation at 10 µM [2] was ≥ 10% and the activation at 10 µM [1, 4] was ≥ 10%.
In the case of `CC(=O)SCCNC(=O)CCNC(=O)[C@H](O)C(C)(C)COC(=O)[C@@H](N)Cc1ccc(O)c(O)c1` [Compound 498, (3R)-3-[(2-[[2-(acetylsulfanyl)ethyl]carbamoyl]ethyl)carbamoyl]-3-hydroxy-2,2-dimethylpropyl (2S)-2-amino-3-(3,4-dihydroxyphenyl)propanoate], the “% increase in MMP-1” value ([3]; 1 uM) is reported as ≥10% and the “% decrease in tPA” value ([3]; 10 uM) is reported as ≥10%.
In the case of `CC(=O)SCCNC(=O)CCNC(=O)[C@H](O)C(C)(C)COC(=O)[C@H](C)N` [Compound 502, (3R)-3-[(2-[[2-(acetylsulfanyl)ethyl]carbamoyl]ethyl)carbamoyl]-3-hydroxy-2,2-dimethylpropyl (2S)-2-aminopropanoate], the activation at 10 µM [2] is reported as ≥ 10% and the “% decrease in IL-1α” value ([3]; 1 uM) is reported as ≥10%.
`CC(=O)OCC(C)(C)[C@@H](OC(C)=O)C(=O)NCCC(=O)NCCSC(C)=O` [Compound 1264, (1R)-3-(acetyloxy)-1-[(2-[[2-(acetylsulfanyl)ethyl]carbamoyl]ethyl)carbamoyl]-2,2-dimethylpropyl acetate] was tested, and the activation at 10 µM [2] was ≥ 10%, the “% decrease in tPA” value ([3]; 10 uM) was ≥10% and the inhibition at 10 µM [3, 5] was ≥ 10%.
With `CC(O)C(C(=O)SCCNC(=O)CCNC(=O)[C@H](O)C(C)(C)CO)C(C)O` (stereo partly drawn) [Compound 1285, (2R)-2,4-dihydroxy-N-[2-[(2-[[3-hydroxy-2-(1-hydroxyethyl)butanoyl]sulfanyl]ethyl)carbamoyl]ethyl]-3,3-dimethylbutanamide] the activation at 10 µM [2] was ≥ 10%.
With `COC(=O)CCC(=O)SCCNC(=O)CCNC(=O)[C@H](OC(=O)CN)C(C)(C)CO` [Compound 1294, methyl 4-[(2-[3-[(2R)-2-[(2-aminoacetyl)oxy]-4-hydroxy-3,3-dimethylbutanamido]propanamido]ethyl)sulfanyl]-4-oxobutanoate] the inhibition at 1 µM ([3]; Homo sapiens, Epithelial cell, 24 h, 1 uM, read-out: % decrease in MMP-1) was ≥ 10% and the activation at 10 µM [1, 6] was ≥ 10%.
For `COC(=O)CCC(=O)SCCNC(=O)CCNC(=O)[C@H](OC(=O)CNC(C)=O)C(C)(C)CO` [Compound 1298, methyl 4-[(2-[3-[(2R)-2-[(2-acetamidoacetyl)oxy]-4-hydroxy-3,3-dimethylbutanamido]propanamido]ethyl)sulfanyl]-4-oxobutanoate], the inhibition at 10 µM [3, 5] was ≥ 10% and the activation at 10 µM [1, 6] was ≥ 10%.
In the case of `CC(C)(CO)[C@@H](O)C(=O)NCCC(=O)NCCSC(=O)CCCO` [Compound 1304, (2R)-2,4-dihydroxy-N-[2-([2-[(4-hydroxybutanoyl)sulfanyl]ethyl]carbamoyl)ethyl]-3,3-dimethylbutanamide], the activation at 10 µM [2] is reported as ≥ 10%.
In the case of `C[C@H](O)CC(=O)CC(=O)SCCNC(=O)CCNC(=O)[C@H](O)C(C)(C)CO` [Compound 1306, (2R)-2,4-dihydroxy-N-[2-[(2-[[(5S)-5-hydroxy-3-oxohexanoyl]sulfanyl]ethyl)carbamoyl]ethyl]-3,3-dimethylbutanamide], the activation at 10 µM [2] is reported as ≥ 10% and the activation at 10 µM [1, 4] is reported as ≥ 10%.
